Measurements as given in US20120083464A1, “NEUROPROTECTIVE PROPERTIES OF 5'-METHYLTHIOADENOSINE” (priority 2009, published 2012).

System: dopaminergic neurons (TH+ cells) in the substantia nigra
Experiment: MPTP mice model of Parkinson disease, TH immunohistochemistry
Assay type: in vivo, C57B1 mice
Description: Male C57B1 mice, with a body ranging in weight from 23 to 31 g were used in this study. MPTP (Sigma) dissolved in 0.9% NaCl was injected intraperitonealy at a dose of 30 mg/kg for 5 days. MTA was dissolved in purified water with 2% of DMSO at a final concentration of 6 mg/ml and was injected intraperitonealy at a dose of […] or 192 μmol/Kg. The first day of the experiment MTA was injected 24 hours before the MPTP injection and during the following four days administration of MTA was 1 hour before the administration of MPTP. Mice were divided in four groups: (1) MPTP (n=6); (2) MPTP plus 96 μmol/Kg MTA (n=6); (3) MPTP plus 192 μmol/Kg MTA (n=9) and (4) Control group (n=2).
At the end of the experiment, animals were anesthetized with an overdose of 10% chloral hydrate in distilled water and then transcardially perfused with saline Ringer's solution followed by 100 ml of a cold fixative solution containing 4% paraformaldehyde and 0.4% glutaraldehyde in 0.125 M PB, pH 7.4. After perfusion, the skull was opened and the brain removed was post-fixed overnight at 4° C. in the same fixative solution and next stored in a cryoprotective solution containing 20% glycerine and 2% dimethylsulphoxide in 0.125 M PB, pH 7.4. Frozen coronal microtome sections (50 μm-thick) were obtained and collected in 0.125 M PB, pH 7.4, in 6 series of adjacent sections. Sections were stored at −80° C. until further processing.
With a random start, every third sections through the entire SN were sampled. The sections were processed free-floating. Endogenous peroxidase activity was removed by incubating the sections in methanol with 1.25% H2O2 for 40 min. […] Histological quantification was done using the CAST system from Olympus using the BX50 microscope and following the methods described by Oorschot (J Comp Neurol 366:580-599, 1996). […] Neurons were counted using the optic dissector every 3 sections at 150 μm distance and at ×400. […]

Compound: CSC[C@H]1O[C@@H](n2cnc3c(N)ncnc32)[C@H](O)[C@@H]1O [MTA, 5′-methylthioadenosine]
- reduction in the number of TH (dopaminergic) neurons compared to controls (MPTP 30 mg/kg for 5 days plus MTA 96 μM/day (so in the source)): 10%
- higher number of dopaminergic neurons than MPTP treated animals (MPTP plus MTA 96 μM/day (so in the source)): 30%
- number of TH neurons versus MPTP animals (MPTP plus MTA (96 μM as printed)): significantly higher number of TH neurons
